US20070218460A1, “Method of Estimating Toxicity of Drug” (TAKEDA PHARMACEUTICAL COMPANY LIMITED, priority 2003, published 2007)

What was measured:
[1] = test system: asah1; experiment: Real-time quantitative PCR of PLsis marker gene expression; format: cell-based, human; conditions: HepG2 cells, 24 hr exposure, relative value, control group = 1.0, GAPDH internal standard, n=3
Experimental: (§1) Using RNeasy Mini Kit (QIAGEN), total RNA was purified from the cells, and cDNA was synthesized in a 100 μL system using TaqMan Reverse Transcription Reagents (PE Applied Biosystems).
(§2) As the primer for glyceraldehyde-3-phosphoric acid dehydrogenase (GAPDH) and VIC labeled probe, those attached to TaqMan GAPDH Control Reagents (PE Applied Biosystems) were used.
(§3) Using 100 μL of the reaction mixture containing 5 μL of cDNA (1×TaqMan Universal PCR Master Mix (PE Applied Biosystems), 200 nM forward primer, 200 nM reverse primer and 200 nM TaqMan probe), 40 cycles of (1 cycle=95° C., 15 sec; 60° C., 1 min) PCR were performed. PCR and fluorescence detection were performed using ABI PRISM Sequence Detector 7000 (PE Applied Biosystems). As the internal standard, GAPDH was used to amend the measurement values. For the determination of significant difference, t-test was used (n=3).
(§4) For each test compound, the expression variation rate of 12 genes each relative to the control group was determined.

[2] = test system: nr0b2; experiment: as above; format: cell-based, human; conditions: HepG2 cells, 24 hr exposure, relative value, control group = 1.0, GAPDH internal standard, n=3
Experimental: as §1, §2, §3, §4

[3] = test system: serpina3; experiment: as above; format: cell-based, human; conditions: HepG2 cells, 24 hr exposure, relative value, control group = 1.0, GAPDH internal standard, n=3
Experimental: as §1, §2, §3, §4

[4] = test system: flj22362; experiment: as above; format: cell-based, human; conditions: HepG2 cells, 24 hr exposure, relative value, control group = 1.0, GAPDH internal standard, n=3
Experimental: as §1, §2, §3, §4

[5] = test system: lss; experiment: as above; format: cell-based, human; conditions: HepG2 cells, 24 hr exposure, relative value, control group = 1.0, GAPDH internal standard, n=3
Experimental: as §1, §2, §3, §4

[6] = test system: hpn; experiment: as above; format: cell-based, human; conditions: HepG2 cells, 24 hr exposure, relative value, control group = 1.0, GAPDH internal standard, n=3
Experimental: as §1, §2, §3, §4

[7] = test system: slc2a3; experiment: as above; format: cell-based, human; conditions: HepG2 cells, 24 hr exposure, relative value, control group = 1.0, GAPDH internal standard, n=3
Experimental: as §1, §2, §3, §4

[8] = test system: fabp1; experiment: as above; format: cell-based, human; conditions: HepG2 cells, 24 hr exposure, relative value, control group = 1.0, GAPDH internal standard, n=3
Experimental: as §1, §2, §3, §4

[9] = test system: mgc4171; experiment: as above; format: cell-based, human; conditions: HepG2 cells, 24 hr exposure, relative value, control group = 1.0, GAPDH internal standard, n=3
Experimental: as §1, §2, §3, §4

[10] = test system: tagln; experiment: as above; format: cell-based, human; conditions: HepG2 cells, 24 hr exposure, relative value, control group = 1.0, GAPDH internal standard, n=3
Experimental: as §1, §2, §3, §4

[11] = test system: kiaa1001; experiment: as above; format: cell-based, human; conditions: HepG2 cells, 24 hr exposure, relative value, control group = 1.0, GAPDH internal standard, n=3
Experimental: as §1, §2, §3, §4

[12] = test system: depp; experiment: as above; format: cell-based, human; conditions: HepG2 cells, 24 hr exposure, relative value, control group = 1.0, GAPDH internal standard, n=3
Experimental: as §1, §2, §3, §4

[13] = test system: HepG2 cells; experiment: Electron-microscopic examination of PLsis induction potential (myelin-like structure)
From the text: Using 30 kinds of the following commercially available drugs as test compounds, the level of PLsis induction potential was examined with the emergence of an intracellular myelin-like structure or a structure having a high electron density, which is an early image thereof, as an index by electronmicroscopic observation.
HepG2 cells (purchased from ATCC) were exposed to the test compound by a conventional method. HepG2 cells used were of the cell growth phase. The attached HepG2 cells were washed twice with. Dulbecco's phosphate buffered saline (calcium and magnesium salt free; PBS(−))(Dainippon Pharmaceutical Co., Ltd.) containing 0.05 w/v % EDTA, detached with a cell dissociation solution of 0.25 vol % trypsin-1 mmol/L EDTA (Gibco BRL) diluted 2-fold with PBS(−), centrifuged to remove the supernatant, and adjusted to a concentration of 2×10^5 cells/250 μL with a culture medium [Dulbecco's modified Eagle medium (DMEM)(Gibco BRL) supplemented with 50 U/mL penicillin (Gibco BRL)-[…] streptomycin (Gibco BRL) and 5 vol % FBS (Bio whittaker)]. DMSO alone or a culture medium containing the above-mentioned test compound in DMSO solution was dispensed to a well by 250 μL, the above-mentioned cell suspension (250 μL) was added, and cultured in a CO2 incubator (7100; Napco) under an atmosphere of 5% CO2—95% air at 37° C.
After culture for 72 hr, the culture medium was removed, and the cells were fixed with 1 w/v % glutaraldehyde solution. After fixing with 2 w/v % osmic acid for 2 hr by a conventional method and dehydrating with an alcohol series, the cells were embedded in a resin (Quetol 812). Ultrathin slices were prepared and, after electron staining, observed with an electron microscope (H-300; Hitachi) and photographed in 3 or more pictures per each sample (magnification ×5000). The processing after post-fixation was performed by Applied Medical Research.

[14] = test system: HepG2 cells; experiment: Highest concentration at which cells were viable after 72 hr exposure; format: cell-based, human

Row | Compound | expression variation rate asah1 [1] | expression variation rate nr0b2 [2] | expression variation rate serpina3 [3] | expression variation rate flj22362 [4] | expression variation rate lss [5] | expression variation rate hpn [6] | expression variation rate slc2a3 [7] | expression variation rate fabp1 [8] | expression variation rate mgc4171 [9] | expression variation rate tagln [10] | expression variation rate kiaa1001 [11] | expression variation rate depp [12] | frequency of appearance of myelin-like structure [13] | addition concentration (highest concentration at which cells survived after 72 hr of culture) [14] [µmol/L]
1 | CCN(CC)CCNC(=O)c1ccc(N)cc1 [procainamide] | 0.86 | 0.74 | 0.96 | 0.73 | 0.90 | 1.08 | 0.88 | 1.00 | 1.08 | 0.85 | 1.78 | 0.98 | − | 25
2 | CN[C@H]1CC[C@@H](c2ccc(Cl)c(Cl)c2)c2ccccc21 [sertraline] | 3.08 | 1.79 | 2.69 | 3.49 | 3.91 | 3.07 | 0.14 | 4.14 | 1.94 | 0.37 | 2.38 | 4.44 | ++ | 8.3
3 | CC(C)NCC(O)c1ccc(NS(C)(=O)=O)cc1 (stereo not shown) [sotalol] | 1.39 | 0.63 | 0.78 | 0.85 | 0.88 | 0.79 | 1.53 | 0.98 | 0.72 | 0.80 | 0.84 | 0.80 | − | 25
4 | Cc1cc(NS(=O)(=O)c2ccc(N)cc2)no1 [sulfamethoxazole] | 1.26 | 0.82 | 0.98 | 0.87 | 0.82 | 0.89 | 1.11 | 0.85 | 0.78 | 0.99 | 0.84 | 0.70 | − | 25
5 | CNS(=O)(=O)Cc1ccc2[nH]cc(CCN(C)C)c2c1 [sumatriptan] | 1.35 | 0.63 | 0.95 | 1.26 | 1.23 | 1.16 | 0.99 | 1.01 | 0.99 | 1.06 | 1.34 | 1.05 | − | 25
6 | CC/C(=C(\c1ccccc1)c1ccc(OCCN(C)C)cc1)c1ccccc1 [tamoxifen] | 4.50 | 2.56 | 2.12 | 1.53 | 3.01 | 2.19 | 0.24 | 1.90 | 1.60 | 0.27 | 1.85 | 2.02 | ++ | 8.3
7 | CSc1ccc2c(c1)N(CCC1CCCCN1C)c1ccccc1S2 (stereo not shown) [thioridazine] | 1.36 | 0.77 | 2.46 | 1.57 | 2.03 | 2.85 | 0.38 | 5.07 | 1.32 | 0.46 | 5.79 | 2.02 | + | 8.3
8 | CN(C)C/C=C(/c1ccc(Br)cc1)c1cccnc1 [zimelidine] | 2.91 | 1.33 | 1.95 | 1.71 | 1.05 | 1.74 | 0.70 | 1.42 | 1.12 | 0.59 | 2.24 | 2.67 | + | 25
